Results taken from article PMC4743925, “Targeting an Essential GTPase Obg for the Development of Broad-Spectrum Antibiotics” (PLoS ONE, 2016).

Experiments:
ObgGC = biological target: T1, ObgGC (Neisseria gonorrhoeae, UniProt Q5F5D9); assay: mant-nucleotide fluorescence increase; type: binding; settings: 2 μM protein, labelled compound
T1 construct: gene obg; full-length with C-terminal 6xHis tag, expressed in E. coli BL21(DE3), IMAC and size exclusion; tag not reported cut

ObgKP = biological target: T2, ObgKP (Klebsiella pneumoniae, UniProt A6TEK2); assay: mant-nucleotide fluorescence increase; type: binding; settings: 2 μM protein, labelled compound
T2 construct: gene obg; residues 1-392, N-terminal 6xHis tag and TEV site (modified pCDF-Duet1, pKV1414), expressed in E. coli BL21(DE3); tag not reported cut

[1] = 0.3 μM mant-GTP, 5 mM MgCl2, 37 °C

T2 sequence (A6TEK2 whole entry, the tested form may be a part): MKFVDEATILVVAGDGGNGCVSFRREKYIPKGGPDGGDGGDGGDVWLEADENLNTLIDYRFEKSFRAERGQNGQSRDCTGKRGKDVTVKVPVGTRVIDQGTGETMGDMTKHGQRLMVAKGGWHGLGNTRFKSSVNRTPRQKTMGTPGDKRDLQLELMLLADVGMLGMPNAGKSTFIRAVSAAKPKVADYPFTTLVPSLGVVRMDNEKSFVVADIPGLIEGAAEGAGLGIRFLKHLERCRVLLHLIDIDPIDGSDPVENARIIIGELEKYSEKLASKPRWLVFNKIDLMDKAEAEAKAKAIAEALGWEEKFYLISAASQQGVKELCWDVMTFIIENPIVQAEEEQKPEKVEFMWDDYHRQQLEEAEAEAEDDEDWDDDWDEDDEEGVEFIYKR
T1 sequence (Q5F5D9 whole entry): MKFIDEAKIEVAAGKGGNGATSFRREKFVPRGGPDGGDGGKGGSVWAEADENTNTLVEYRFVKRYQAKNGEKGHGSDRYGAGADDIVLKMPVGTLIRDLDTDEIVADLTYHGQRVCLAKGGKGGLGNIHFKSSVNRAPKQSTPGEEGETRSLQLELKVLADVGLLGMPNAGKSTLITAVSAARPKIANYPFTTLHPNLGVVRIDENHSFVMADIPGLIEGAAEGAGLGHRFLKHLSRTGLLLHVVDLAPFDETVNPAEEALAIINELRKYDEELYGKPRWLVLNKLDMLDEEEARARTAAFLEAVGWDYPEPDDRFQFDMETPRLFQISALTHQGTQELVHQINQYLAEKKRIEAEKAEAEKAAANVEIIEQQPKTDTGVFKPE

| Structure (SMILES) | increase in RFU (ObgGC; 0.3 μM mant-GDP, no MgCl2, 37 °C) | fold increase in RFU (ObgKP; 0.3 μM mant-GDP, 37 °C) | increase in RFU (ObgGC; [1]) | fold increase in RFU (ObgKP; [1]) |
| --- | --- | --- | --- | --- |
| CNc1ccccc1C(=O)O[C@H]1[C@@H](O)[C@H](n2cnc3c(=O)[nH]c(N)nc32)O[C@@H]1COP(=O)(O)OP(=O)(O)O [mant-GDP] | Assessment of mant-nucleotides binding by wild type (ObgGC) and mutated (*ObgGC) | ~ 1.3 fold | – | – |
| CNc1ccccc1C(=O)O[C@H]1[C@@H](O)[C@H](n2cnc3c(=O)[nH]c(N)nc32)O[C@@H]1COP(=O)(O)OP(=O)(O)OP(=O)(O)O [mant-GTP] | – | – | Assessment of mant-nucleotides binding by wild type (ObgGC) and mutated (*ObgGC) | ~ 1.8 fold |
